What is called IC50 is the concentration at which inhibition is half-maximal. A higher IC50 goes with weaker potency in that assay.

Series [1] deals with T1, Steroid 17-alpha-hydroxylase/17,20 lyase (Homo sapiens, UniProt P05093).
T1 sequence (P05093 whole entry): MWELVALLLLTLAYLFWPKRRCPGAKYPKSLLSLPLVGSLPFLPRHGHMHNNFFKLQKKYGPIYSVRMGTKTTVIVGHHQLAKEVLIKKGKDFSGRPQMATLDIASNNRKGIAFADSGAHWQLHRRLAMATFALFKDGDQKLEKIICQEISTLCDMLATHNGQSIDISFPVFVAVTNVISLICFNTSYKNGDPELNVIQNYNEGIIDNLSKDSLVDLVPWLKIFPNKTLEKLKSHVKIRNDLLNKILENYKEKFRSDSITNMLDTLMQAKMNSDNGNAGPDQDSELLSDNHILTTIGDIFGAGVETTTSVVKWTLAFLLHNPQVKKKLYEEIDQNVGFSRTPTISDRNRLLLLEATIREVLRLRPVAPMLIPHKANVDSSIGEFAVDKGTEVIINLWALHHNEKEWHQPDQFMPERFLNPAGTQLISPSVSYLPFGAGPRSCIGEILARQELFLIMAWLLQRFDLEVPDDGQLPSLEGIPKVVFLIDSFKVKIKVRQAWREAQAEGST
As to the kind of experiment: Inhibition of human CYP17A1. The class given is ADME.

Series [2] can be described thus: Metabolic stability in human liver microsomes assessed as parent compound remaining relative to control. Note: time not given here. In kind it is ADME, Microsome. (Liver microsomes are vesicles of endoplasmic reticulum, rich in cytochrome P450 enzymes.)
A short description of series [3]: Metabolic stability in rat liver microsomes assessed as parent compound remaining. Note: time not given here. In kind it is ADME, Microsome.
A short description of series [4]: Metabolic stability in mouse liver microsomes assessed as parent compound remaining. Note: time not given here. In kind it is ADME, Microsome.
The target in a further series is T2, Cytochrome P450 1A2 (Homo sapiens, UniProt P05177).
T2 sequence (P05177 whole entry): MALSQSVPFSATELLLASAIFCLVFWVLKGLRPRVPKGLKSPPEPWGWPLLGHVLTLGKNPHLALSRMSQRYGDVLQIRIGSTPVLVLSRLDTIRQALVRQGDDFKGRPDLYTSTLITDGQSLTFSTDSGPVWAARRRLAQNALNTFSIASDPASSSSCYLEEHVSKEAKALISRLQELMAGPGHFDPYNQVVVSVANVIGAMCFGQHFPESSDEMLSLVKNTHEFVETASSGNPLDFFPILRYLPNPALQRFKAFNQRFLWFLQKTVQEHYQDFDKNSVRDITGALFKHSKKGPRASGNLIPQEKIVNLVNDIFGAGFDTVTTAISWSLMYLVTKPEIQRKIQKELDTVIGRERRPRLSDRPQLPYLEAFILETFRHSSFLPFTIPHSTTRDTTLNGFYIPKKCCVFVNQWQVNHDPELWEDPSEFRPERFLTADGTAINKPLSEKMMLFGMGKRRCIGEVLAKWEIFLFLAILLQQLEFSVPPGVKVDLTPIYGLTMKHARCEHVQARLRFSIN
Put plainly: Inhibition of CYP1A2 (unknown origin). In kind it is ADME.

In series [5] the target is T1, Steroid 17-alpha-hydroxylase/17,20 lyase. Put plainly: Selectivity ratio for inhibition of human CYP17A1 hydroxylase activity to inhibition of human CYP17A1 lyase activity. The class given is ADME.

In the case of `Cc1ccncc1-c1cccc2c(-c3ccccc3)noc12`, the IC50 in series [1] was 1 nM; against Cytochrome P450 1A2, 28 nM. Besides, the results for the Stability in series [2], in series [3] and in series [4] were 80%, 6% and 5%, respectively.
For `Cn1cncc1-c1ccnc2c1cnn2-c1ccc(F)cc1`, the Stability in series [2] turned out to be 100%; in series [3], 56%; in series [4], 37%. The molecule also yielded an IC50 at Cytochrome P450 1A2 of 58 nM. Further, in series [5], the Ratio was 30.
For `Cc1ccncc1-c1ccnn2c(-c3ccccc3)cnc12`, the Stability was 100% in series [2], 47% in series [3] and 26% in series [4]. For the same molecule, on Cytochrome P450 1A2, the IC50 worked out at 318 nM.
As to `Cc1ccncc1-c1ccnc2c1cnn2-c1cccc(F)c1`, the results for the IC50 (in series [1]; against Cytochrome P450 1A2) were 27 nM and 281 nM, respectively. The Stability in series [2] is 76%; in series [3] it was 9%; in series [4] it was 4%. The Ratio in series [5] is reported as 36.
Regarding `Cc1ccncc1-c1ccnc2c1cnn2-c1ccccc1`, the half-maximal inhibitory concentration (IC50) stood at 7 nM in series [1] and 560 nM at Cytochrome P450 1A2. Moreover, the Stability in series [2] was found to be 73%; in series [3], 4%; in series [4], 7%.
On to `Fc1ccc(-n2ncc3c(-c4cccnc4)ccnc32)cc1`, for which the IC50 worked out at 96 nM in series [1] and 216 nM against Cytochrome P450 1A2.
As for `Cc1ccncc1-c1ccnc2c1cnn2-c1nccs1`, the IC50 in series [1] turned out to be 91 nM; against Cytochrome P450 1A2 it was 617 nM. Besides, the Stability is reported as 64% in series [2], 48% in series [3] and 42% in series [4].
`Cc1ccncc1-c1ccnc2c1cnn2CC(F)(F)F`: the Stability in series [2] was 92%; in series [3], 30%; in series [4] it was 41%. At Cytochrome P450 1A2, this molecule showed an IC50 of 11200 nM. In series [5], the Ratio stood at 12.
As for `Cc1ccncc1-c1ccnc2c1cnn2-c1ncccc1Cl`, the IC50 was 5 nM in series [1] and 16700 nM at Cytochrome P450 1A2. Besides, the Stability in series [2] amounted to 88%; in series [3], 26%; in series [4], 25%. Besides, the Ratio in series [5] was determined as 7.
In the case of `Cc1ccncc1-c1ccnc2c1cnn2-c1ccc(F)cc1F`, the IC50 in series [1] is 9 nM; at Cytochrome P450 1A2, 5200 nM. Also, the Stability is on record as 100% in series [2], 18% in series [3] and 37% in series [4]. Moreover, the Ratio in series [5] stood at 19.
Consider `COc1c(F)cccc1-n1ncc2c(-c3cnccc3C)ccnc21`, for which the IC50 was found to be 14 nM in series [1] and 4740 nM against Cytochrome P450 1A2. For the same molecule, the Stability in series [2] was 77%; in series [3] it was 0.2%; in series [4] it was 2%. The Ratio in series [5] worked out at 7.
Regarding `Cc1ccncc1-c1ccnc2c1cnn2C(C)(C)C`, the half-inhibitory concentration (IC50) in series [1] was determined as 92 nM; on Cytochrome P450 1A2, 5280 nM. Further, the results for the Stability in series [3] and in series [4] were 16% and 15%, respectively.
Consider `Nc1ncncc1-c1ccnc2c1cnn2-c1cccc(S(N)(=O)=O)c1`, for which the IC50 in series [1] is 99 nM; against Cytochrome P450 1A2 it was above 40000 nM. For the same molecule, the Stability was 100% in series [2], 89% in series [3] and 95% in series [4].
Taken in the same sequence, the figures for `COc1ccccc1-n1ncc2c(-c3cnccc3C)ccnc21` were 9 nM, 15400 nM, 88%, 1% and 2%.
`Cc1ncncc1-c1ccnc2c1cnn2-c1ccc(F)cc1` returned a half-maximal inhibitory concentration (IC50) on Cytochrome P450 1A2 of 2740 nM. Besides, the Ratio in series [5] came to 4.
On to `Cc1ccncc1-c1ccnc2c1cnn2Cc1ccc(F)cc1`, for which the IC50 was determined as 800 nM in series [1] and 5140 nM on Cytochrome P450 1A2.
Take `Cc1ccncc1-c1ccnn2c(-c3ccccc3)ccc12`: the IC50 came out at 5 nM in series [1] and 180 nM on Cytochrome P450 1A2. The Stability in series [2] turned out to be 70%; in series [3] it was 3%; in series [4], 7%.
On to `Cc1ccncc1-c1ccnc2c1cnn2C`, for which the IC50 in series [1] is above 1000 nM; on Cytochrome P450 1A2, above 40000 nM.
On to `Fc1ccc(-n2ncc3c(-c4cncnc4C(F)(F)F)ccnc32)cc1`, for which the IC50 in series [1] was found to be 141 nM; at Cytochrome P450 1A2, 2140 nM. For the same molecule, the Stability in series [2] is 88%; in series [3], 63%; in series [4] it was 56%.
For the molecule `Cc1ccncc1-c1ccnc2c(-c3ccccc3)noc12`, the IC50 in series [1] was determined as 5 nM; against Cytochrome P450 1A2, 321 nM. The Stability in series [2] is 80%; in series [3], 7%; in series [4], 5%.
Regarding `Cc1ccncc1-c1cccc2c(-c3ccccc3)cnn12`, the half-inhibitory concentration (IC50) in series [1] was 2 nM; on Cytochrome P450 1A2, 34 nM. In addition, the Stability in series [2] is recorded as 79%; in series [3], 3%; in series [4], 6%.
For `Cc1ccncc1-c1ccnc2c1cnn2-c1ccc(F)cc1Cl`, the half-inhibitory concentration (IC50) in series [1] was 4 nM; at Cytochrome P450 1A2, 8700 nM. The values for the Stability in series [2], in series [3] and in series [4] were 74%, 0.9% and 14%, respectively. For the same molecule, the Ratio in series [5] came to 3.
On to `Cc1ccncc1-c1ccnc2c(-c3ccccc3)csc12`, for which the IC50 in series [1] worked out at 10 nM; against Cytochrome P450 1A2 it was 250 nM. Besides, the Stability amounted to 65% in series [2], 3% in series [3] and 2% in series [4].
With `Cc1ccncc1-c1cccc2c(-c3ccccc3)csc12`, the IC50 in series [1] came out at 3 nM; against Cytochrome P450 1A2 it was 134 nM. Further, the values for the Stability in series [2], in series [3] and in series [4] were 84%, 2% and 3%, respectively.
As for `Nc1ncncc1-c1ccnc2c1cnn2-c1c(F)cc(F)cc1F`, the figures for the concentration for half-maximal inhibition (IC50) (in series [1]; against Cytochrome P450 1A2) were 5 nM and above 40000 nM, respectively. Moreover, the figures for the Stability in series [3] and in series [4] were 87% and 82%, respectively. For the same molecule, the Ratio in series [5] is 3.
In the case of `COc1ccncc1-c1ccnc2c1cnn2-c1ccc(F)cc1`, the values for the half-inhibitory concentration (IC50) (in series [1]; at Cytochrome P450 1A2) were 11 nM and 717 nM, respectively. For the same molecule, the Stability amounted to 86% in series [2], 32% in series [3] and 58% in series [4]. For the same molecule, the Ratio in series [5] was determined as 10.
Regarding `Cc1ccncc1-c1ccnc2c1cnn2-c1ccc(F)cc1`, the IC50 in series [1] was 6 nM; against Cytochrome P450 1A2, 384 nM. Further, the Stability in series [2] worked out at 100%; in series [3], 43%; in series [4], 27%. Besides, the Ratio in series [5] is reported as 43.
Consider `Cc1ccncc1-c1ccnc2c1cnn2-c1ccc(F)c(Cl)c1`, for which the IC50 in series [1] is 24 nM; on Cytochrome P450 1A2 it was 662 nM. Besides, the Stability in series [2] was determined as 85%; in series [3] it was 37%; in series [4] it was 2%. The Ratio in series [5] came to 10.
With `Fc1ccc(-n2ncc3c(-c4cncn5cccc45)ccnc32)cc1`, the IC50 in series [1] is above 1000 nM; on Cytochrome P450 1A2, 2330 nM. Moreover, the Stability came out at 72% in series [2], 12% in series [3] and 1% in series [4]. Moreover, in series [5], the Ratio was found to be 13.
With `Nc1ncncc1-c1ccnc2c1cnn2-c1ccccn1`, the Stability in series [2] stood at 100%; in series [3], 100%; in series [4] it was 70%. The molecule also came in with a concentration for half-maximal inhibition (IC50) on Cytochrome P450 1A2 above 40000 nM.
For the molecule `Nc1ccncc1-c1ccnc2c1cnn2-c1ccc(F)cc1`, the IC50 in series [1] turned out to be 5 nM; on Cytochrome P450 1A2 it was 26900 nM. The Stability in series [2] is on record as 99%; in series [3] it was 0.2%; in series [4] it was 3%. In series [5], the Ratio came out at 7.
For the molecule `Cc1ccncc1-c1cccc2c1OCCN2c1ccccc1`, the results for the IC50 (in series [1]; on Cytochrome P450 1A2) were 8 nM and 140 nM, respectively. For the same molecule, the Stability in series [2] came to 62%; in series [3] it was 0.8%; in series [4] it was 2%.
Take `COc1cccc(-n2ncc3c(-c4cnccc4C)ccnc32)c1`: the results for the IC50 (in series [1]; at Cytochrome P450 1A2) were 3 nM and 1480 nM, respectively. Moreover, the Stability in series [2] turned out to be 21%; in series [3], 6%; in series [4], 37%.
The molecule `Nc1ncncc1-c1ccnc2c1cnn2-c1ncccc1C(F)(F)F` came in with an IC50 in series [1] of 11 nM. Further, the Stability was found to be 98% in series [2], 84% in series [3] and 62% in series [4]. In addition, the Ratio in series [5] came out at 4.
